Measured values taken from the METLIN SMRT retention time set (Domingo-Almenara et al. 2019).

Assay: gradient 5% acetonitrile 3 min, to 50% in 2 min, to 85% in 15 min, held 3 min, 100 µL/min
Settings: column: Zorbax Extend-C18 2.1 x 50 mm; eluents: water / acetonitrile, 0.1% formic acid
Outline: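 Using water and acetonitrile that each contained 0.1% formic acid, mixtures of ~100 pure standards were separated at 100 μL/min on a Zorbax Extend-C18 column (2.1 × 50 mm, 1.8 μm). The HPLC fed a quadrupole time-of-flight mass spectrometer working in positive and negative ionization mode, with dead and dwell volumes of 40 μL and 900 μL. Data were acquired over 3 months. Retention time was read from computationally picked adduct peaks after manual inspection of each.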

Compound	RP-LC retention time [s]
c1ccc(NN(Cc2ccncc2)c2ccccc2)cc1	774
COc1cc(Cl)ccc1C(=O)N1CCN(c2nc3ccncc3n(C)c2=O)CC1	638
COc1cccc2cc(C(=O)Nc3nc(C)cs3)oc12	804
COc1ccccc1C(CNC(=O)c1cc(=O)c2ccccc2o1)N(C)C (configuration not stated)	606
O=S1(=O)CCC(Nc2ncnc3c2cnn3-c2ccc(Cl)c(Cl)c2)C1 (configuration not stated)	903
Fc1cccc(Cn2cc(-c3noc(-c4ccc5cc[nH]c5c4)n3)nn2)c1	996
O=C(Cn1c(=O)c2cccn2c2ccccc21)Nc1ccc(Cl)cc1	901
Cc1ccc(Sc2nccnc2N2CCCC(C(=O)Nc3ccc(F)c(C)c3)C2)cc1 (configuration not stated)	1230
CC1OC1c1ccc(-c2ccc(C3OC3C)cc2)cc1 (configuration not stated)	1140
COCC1CN(C2CCC2)CC12CCN(C(=O)c1ccc(C)s1)CC2 (configuration not stated)	645
O=C(NCCn1nc(-c2ccco2)ccc1=O)C1CN(c2nc3c(F)cccc3s2)C1	680
Cc1ccc(NC(=O)NC2CCN(c3ccccc3)C2=O)cc1C (configuration not stated)	853
Nc1ccc(NC(=O)c2ccc(C(F)(F)F)cc2)nc1	693
COc1cccc(CNC(=O)Nc2c(-c3ccccc3)nc3ccccn23)c1	653
CC(=O)NC(CC(C)C)C(=O)NC(Cc1ccccc1)C(=O)CCl (configuration not stated)	750
O=c1oc2cc(O)c(Cl)cc2c2c1CCC2	794

Second part, the molecule after the results:

RP-LC retention time [s]	Compound
712	Cc1cc2c(cc1S(=O)(=O)N1CCCC1C(=O)NCc1ccc(F)cc1)OCC(=O)N2 (configuration not stated)
780	CCCn1c(=O)sc2cc(S(=O)(=O)N3CCC(C(=O)Nc4ccccn4)CC3)ccc21
802	O=C(NCc1cc(F)ccc1F)C1CCN(C(=O)c2ncn3c2COC(c2ccc(F)cc2)C3)CC1 (configuration not stated)
873	O=C(CSc1ccc(N2CCN(c3ccc(F)cc3)CC2)nn1)NCc1ccco1
888	CCN1c2ccc(C)cc2C(=O)NC12CCN(C(=O)c1ccc(F)c(Cl)c1)CC2
675	Cc1nc(CNC(=O)C2CCN(C(=O)Nc3ccc(C)c(C)c3)CC2)cs1
715	Cc1cccc(N2CCN(c3cc(C(=O)O)c4cc(NS(C)(=O)=O)ccc4n3)CC2)c1C
917	CCn1cc(-c2ccc(F)cc2)cc1C(=O)NC1CC1
782	CN(CCc1noc(-c2ccc(C(=O)N3CCCCC3)cc2)n1)C(=O)c1ccc(Br)o1
725	O=C(NCc1csc(C2CCN(C(=O)c3ccccc3Cl)CC2)n1)C1CCC1
960	CC(C)C(NC(=O)Nc1ccc(F)cc1)C(=O)N1CCc2ccccc21 (configuration not stated)
828	CCCn1cc(CCNC(=O)Nc2cccc(Cl)c2)c2cccnc21
663	COc1ccc(NC(=O)N2CCC(c3cc(N)on3)CC2)cc1F
766	CCc1cc(C2CCCN2C(=O)NCc2ccccc2)on1 (configuration not stated)
919	Cc1nc(-c2cc(S(=O)(=O)N3CCC(C(=O)NCCc4cccs4)CC3)c(C)s2)no1
700	CNC(=O)c1ccc(N2CCCN(Cc3ccccc3C)C2=O)cc1
635	COc1ccc(NC(=O)c2[nH]c3cc(C)sc3c2CN2CCOCC2)cc1OC
642	CC1=C(c2ccc(Cl)cc2)S(=O)(=O)N=C1N1CCC(C(=O)NCCN(C)C)CC1
628	CCCCNC(=O)C(=O)NCC(c1ccc2c(c1)OCO2)N1CCOCC1 (configuration not stated)
744	COC(=O)Nc1nc(CC(=O)Nc2ccc(F)c(Cl)c2)cs1
593	O=C(NCCc1ccccc1)N1CCN(CCn2c(-c3ccncc3)nc3cccnc32)CC1
